Data taken from patent US9505781B2, “Compositions comprising thienopyrimidine and thienopyridine compounds and methods of use thereof” (The Regents of the University of Michigan, priority 2013, dated 2016).

Molecular target: T1, menin-MLL interaction (Homo sapiens, UniProt O00255)
T1 sequence (O00255 1-610): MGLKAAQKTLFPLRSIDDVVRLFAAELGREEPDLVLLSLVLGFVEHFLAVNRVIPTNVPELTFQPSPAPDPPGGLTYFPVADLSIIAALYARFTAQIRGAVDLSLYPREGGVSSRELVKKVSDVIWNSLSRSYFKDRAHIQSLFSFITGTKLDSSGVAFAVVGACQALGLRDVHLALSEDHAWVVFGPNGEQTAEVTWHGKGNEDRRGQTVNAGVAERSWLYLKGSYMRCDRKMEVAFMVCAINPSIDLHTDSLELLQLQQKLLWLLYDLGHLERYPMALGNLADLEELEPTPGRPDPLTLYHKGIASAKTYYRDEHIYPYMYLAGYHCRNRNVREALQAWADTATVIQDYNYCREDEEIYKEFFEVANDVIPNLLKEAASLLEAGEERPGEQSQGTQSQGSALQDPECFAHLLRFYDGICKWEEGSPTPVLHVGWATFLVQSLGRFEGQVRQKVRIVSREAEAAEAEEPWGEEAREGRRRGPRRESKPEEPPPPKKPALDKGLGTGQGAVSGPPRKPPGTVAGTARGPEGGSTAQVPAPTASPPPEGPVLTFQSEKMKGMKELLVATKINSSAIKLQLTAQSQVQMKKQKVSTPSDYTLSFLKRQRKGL
Experiment: biochemical
Source text: Compounds that inhibit the interaction decrease the fluorescence anisotropy which is being used as a read-out for compound screening and for IC50 determination.

Row | SMILES | IC50
1 | Cc1ncc(Cn2c(C#N)cc3c(C)c(CN4CCC(Nc5ncnc6sc(CC(F)(F)F)cc56)CC4)ccc32)[nH]1 [Compound 351] | < 100 nM
2 | O=C(Cc1ccc(Cl)cc1)N1CCN(c2ncnc3sc(CC(F)(F)F)cc23)CC1 [Compound 71] | 100 to 500 nM
3 | Cc1ccc(CN2CCC(Nc3ncnc4sc(CC(F)(F)F)cc34)CC2)c(C)c1 [Compound 120] | 100 to 500 nM
4 | CS(=O)(=O)c1cc2cc(CN3CCC(Nc4ncnc5sc(CC(F)(F)F)cc45)CC3)ccc2[nH]1 [Compound 236] | 100 to 500 nM
5 | C=C(Br)Cn1c(C#N)cc2cc(CN3CCC(Nc4ncnc5sc(CC(F)(F)F)cc45)CC3)ccc21 [Compound 306] | < 100 nM
6 | CC1(C)CN=C(N2CCN(c3ncnc4sc(CCCC(F)(F)F)cc34)CC2)S1 [Compound 22] | 500 to 2000 nM
7 | NC(=O)c1cc2cc(CN3CCC(Nc4ncnc5sc(CC(F)(F)F)cc45)CC3)ccc2[nH]1 [Compound 232] | 100 to 500 nM
8 | CS(=O)(=O)Cc1ccc(CC(=O)N2CCN(c3ncnc4sc(CC(F)(F)F)cc34)CC2)cc1 [Compound 43] | < 100 nM
9 | CCOc1cc2c(cc1CN1CCC(Nc3ncnc4sc(CC(F)(F)F)cc34)CC1)cc(C#N)n2CC(N)=O [Compound 216] | < 100 nM
10 | O=C(Cc1ccc(Cc2ccoc2)cc1)N1CCN(c2ncnc3sc(CC(F)(F)F)cc23)CC1 [Compound 76] | 100 to 500 nM
11 | N#Cc1ccc(CN2CCC(CNc3ncnc4sc(CC(F)(F)F)cc34)CC2)cc1 [Compound 263] | 100 to 500 nM
12 | N#Cc1cc2cc(CN3CCC(Nc4ncnc5sc(CC(F)(F)F)cc45)CC3)ccc2n1CC1CC1 [Compound 178] | < 100 nM
13 | CC(=O)NCCS(=O)(=O)Nc1ccc(CC(=O)N2CCN(c3ncnc4sc(CC(F)(F)F)cc34)CC2)cc1 [Compound 57] | < 100 nM
14 | O=C(COCc1ccccc1)N1CCN(c2ncnc3sc(CC(F)(F)F)cc23)CC1 [Compound 92] | 500 to 2000 nM
15 | NS(=O)(=O)Nc1ccc(CC(=O)N2CCN(c3ncnc4sc(CC(F)(F)F)cc34)CC2)cc1 [Compound 47] | < 100 nM
16 | CCc1ccc(CN2CCC(Nc3ncnc4sc(CC(F)(F)F)cc34)CC2)cc1 [Compound 118] | 100 to 500 nM
17 | Cc1nc[nH]c1Cn1c(C#N)cc2c(C)c(CN3CCC(Nc4ncnc5sc(CC(F)(F)F)cc45)CC3)ccc21 [Compound 350] | < 100 nM
18 | CN(c1ccc(CC(=O)N2CCN(c3ncnc4sc(CC(F)(F)F)cc34)CC2)cc1)S(C)(=O)=O [Compound 46] | < 100 nM
19 | NCc1ccccc1CN1CCC(Nc2ncnc3sc(CC(F)(F)F)cc23)CC1 [Compound 121] | 100 to 500 nM
20 | CNS(=O)(=O)Nc1ccc(CC(=O)N2CCN(c3ncnc4sc(CC(F)(F)F)cc34)CC2)cc1 [Compound 48] | < 100 nM
21 | CC1(C)CN=C(N2C[C@@H]3CC[C@H]2CN3c2ncnc3sc(CC(F)(F)F)cc23)S1 [Compound 2] | < 100 nM
22 | CS(=O)(=O)OCCn1c(C#N)cc2cc(CN3CCC(Nc4ncnc5sc(CC(F)(F)F)cc45)CC3)ccc21 [Compound 395] | < 100 nM
23 | NCc1nnc(N2CCN(c3ncnc4sc(CC(F)(F)F)cc34)CC2)s1 [Compound 4] | 100 to 500 nM
24 | CS(=O)(=O)N1CCC[C@H]1CN[C@@H]1CN(Cc2ccccc2)CC[C@H]1Nc1ncnc2sc(CC(F)(F)F)cc12 [Compound 173] | 100 to 500 nM
25 | OCc1ccc(CN2CCC(Nc3ncnc4sc(CC(F)(F)F)cc34)CC2)cc1 [Compound 140] | 500 to 2000 nM
26 | CCCc1cc2c(NC3CCN(Cc4ccccc4)CC3)ncnc2s1 [Compound 149] | 500 to 2000 nM
27 | NN(c1ncnc2sc(CC(F)(F)F)cc12)C1CCN(Cc2ccccc2)CC1 [Compound 123] | 100 to 500 nM
28 | N#Cc1cc2cc(CN3CCC(Nc4ncnc5sc(CC(F)(F)F)cc45)C(NCc4cccc(F)c4)C3)ccc2[nH]1 (stereo not drawn) [Compound 289] | < 100 nM
29 | O=C(Cc1ccc(CS(=O)(=O)C(F)(F)F)cc1)N1CCN(c2ncnc3sc(CC(F)(F)F)cc23)CC1 [Compound 79] | 100 to 500 nM
30 | FC(c1cc2c(N3CCN(c4nnc(C(F)(F)F)s4)CC3)ncnc2s1)C(F)(F)F (stereo not drawn) [Compound 21] | 500 to 2000 nM
